{"source": "patent US9963433B2", "about": "“Anticancer drugs including the chemical structures of an androgen receptor ligand and a histone deacetylase inhibitor” (Wayne State University, priority 2016, dated 2018)", "key": {"Hsp90": {"tested_on": "Hsp90", "assay": "Western blot of Hsp90 protein in C4-2 cells", "settings": "1 μM to 10 μM, 24 h, relative to GAPDH, FIG. 4B", "quoted_text": "Cells were then harvested for western blot analysis using antibody to AR (4A), HSP90 (4B), Acetyl-Lysine (4C) or GAPDH (loading control). ImageJ software was used to determine the intensities of the bands relative to the vehicle control for each protein. The values were then divided by the values for GAPDH within the same samples.\nWestern Blot Analysis. Cells were washed once with phosphate buffered saline (PBS) and then lysed with RIPA buffer (150 mM NaCl, 1% Nonidet P-40, 0.5% sodium deoxycholate, 0.1% SDS, 50 mM Tris of pH 8.0) containing a protease inhibitor cocktail (Pierce, Thermo Fisher Scientific). The cell lysates were then incubated on ice for 40 minutes. Total protein concentrations were estimated using the Bradford Assay (Bio-Rad). Protein samples (10-40 ug) were heated at 95° C. for 5 minutes and resolved by electrophoresis on 8% polyacrylamide-SDS gels and electrophoretically transferred to PVDF membranes (Millipore, Billerica, Mass.). The membranes were then probed overnight at 4° C. with the appropriate primary antibody followed by the appropriate horseradish peroxidase-conjugated secondary antibody."}, "22Rv1 cells": {"tested_on": "22Rv1 cells", "assay": "MTT cell viability assay, 22Rv1 cells", "format": "cell-based", "settings": "Day 3, 0.1 μM-10 μM, FIG. 6E; for pEC50: Homo sapiens, 22Rv1, 72 h, read-out: EC50, inhibition of growth of 22Rv1 cells", "description": "(§1) (6A) C4-2 cells were seeded in 96-well plates and 24 h later, they were treated with the indicated compounds (0.1 μM-10 μM) or with vehicle (DMSO). Cell viability was measured by the MTT assay on Days 0 and 3 of treatment. EC50 values were calculated from nonlinear regression plots using GraphPad Prism5 software. […] Cell viability was measured by the MTT assay on Days 0 and 3 of treatment. […] Cell viability was measured by the MTT assay on Days 0 and 3 of treatment. […] (6D) 22Rv1 cells were infected with AR shRNA lentivirus, or control shRNA. 72 h after infection, cells were plated and viable cells were measured by the MTT assay on the indicated days (6D, bottom). Cells were also harvested for western blot analysis and probed with antibody to AR, which was also reactive with the AR splice variant AR-V7 (6D, top). (6E) 22Rv1 cells were seeded in 96-well plates and 24 h later, they were treated with the indicated compounds (0.1 μM-10 μM) or with vehicle (DMSO). Cell viability was measured by the MTT assay on Days 0 and 3 of treatment. EC50 values were calculated from nonlinear regression plots using GraphPad Prism5 software.\n(§2) Cell Proliferation Assay. Cells were trypsinized and 6000 cells/well were seeded in 96-well plates coated with poly-D-lysine. The cells were seeded in phenol red-free medium supplemented with 10% FBS, 100 units/ml penicillin, 100 μg/ml streptomycin, 2 mM L-glutamine mixture and sodium pyruvate (1 mM) for C4-2 cells and phenol red-free medium supplemented with 10% FBS, 100 units/ml penicillin, 100 μg/ml streptomycin and 2 mM L-glutamine mixture for 22Rv1 cells. The cells were grown at 37° C. in 5% CO2. Twenty four hours after seeding in the 96-well plates, the cells were treated with indicated compound or DMSO (vehicle). The culture medium was not changed during the time course of the assay. On Day zero and on Day 3, cell viability was determined using the MTT assay. MTT (10 μL, 5 mg/mL) was added to each well and incubated for 2 h at 37° C. The formazan crystal sediments were dissolved in 100 μL of DMSO, and the absorbance at 570 nm was measured using the BioTek Synergy 2 Microplate Reader (BioTek, Winooski, Vt.). […] IC50 values were calculated from nonlinear […] plots using GraphPad Prism5 software."}, "p21 mRNA in C4-2 cells": {"tested_on": "p21 mRNA in C4-2 cells", "assay": "p21 mRNA induction in C4-2 cells", "settings": "48 h, FIG. 5B"}, "[1]": {"tested_on": "KLK3 mRNA (AR target gene) in C4-2 cells", "assay": "Inhibition of R1881 activation of KLK3 mRNA in C4-2 cells", "format": "cell-based", "settings": "hormone depleted 96 h, R1881 1 nM, compound 1-10 μM, 48 h, FIG. 3A", "description": "Cell Culture and Reagents. LNCaP and 22Rv1 cell lines were from American Type Culture Collection (Manassas, Va.). C4-2 cells were kindly provided by Dr. Edwin Sanchez (University of Toledo). […] R1881 was kindly provided by Dr. Stephan Patrick (Karmanos Cancer Institute). All experiments were conducted using phenol-red free growth media.\nRNA isolation, Reverse Transcription, and Real Time PCR. Total RNA was isolated from cells using the RNeasy Mini Kit (Qiagen). Reverse transcription PCR was then performed using 500 ng of total RNA with random primers and using the high-capacity complementary DNA Archive kit (Applied Biosystems). The complementary DNA from this reaction was measured using quantitative real time PCR using the StepONE Plus Real Time PCR system (Life Technologies Corporation, Carlsbad, Calif.). All reactions were performed in triplicate and normalized to glyceraldehyde-3-phosphate-dehydrogenase values in the same samples."}, "C4-2 cells": {"tested_on": "C4-2 cells", "assay": "MTT cell viability assay, C4-2 cells", "format": "cell-based", "settings": "for pEC50: C4-2, 72 h, 0.1 μM-10 μM, read-out: EC50, inhibition of C4-2 cell growth; for cell death (viable cells below the number on Day 0): C4-2 cells, 5 μM, MTT Day 3 relative to Day 0, FIG. 6C", "description": "as §1, §2"}}, "note": "pEC50: −log10 of the molar value.", "data": [{"smiles": "CC1(C)C(=O)N(c2ccc(C#N)c(C(F)(F)F)c2)C(=S)N1c1ccc(C(=O)NCCCCCCC(=O)NO)c(F)c1", "note": "[Compound 2-75, 4-(3-(4-cyano-3-(trifluoromethyl)phenyl)-5,5-dimethyl-4-oxo-2-thioxoimidazolidin-1-yl)-2-fluoro-N-(7-(hydroxyamino)-7-oxoheptyl)benzamide]", "values": [{"measurement": "Hsp90 protein level (degradation)", "setting": "Hsp90", "value": "more marked reduction in Hsp90"}, {"measurement": "pEC50", "setting": "22Rv1 cells", "value": 5.33}, {"measurement": "p21 mRNA expression", "setting": "p21 mRNA in C4-2 cells", "value": "induced p21 to a greater extent than SAHA"}, {"measurement": "inhibition of activation of KLK3 by R1881", "setting": "[1]", "value": "better inhibitors of gene activation by androgen compared with either Enz or SAHA"}, {"measurement": "pEC50", "setting": "C4-2 cells; MTT, Day 3, FIG. 6A", "value": 5.79}, {"measurement": "cell death (viable cells below the number on Day 0)", "setting": "C4-2 cells", "value": "caused cell death"}]}, {"smiles": "CC1(C)C(=O)N(c2ccc(C#N)c(C(F)(F)F)c2)C(=S)N1c1ccc(/C=C/C(=O)NO)c(F)c1", "note": "[Compound 1005, (E)-3-(4-(3-(4-cyano-3-(trifluoromethyl)phenyl)-5,5-dimethyl-4-oxo-2-thioxoimidazolidin-1-yl)-2-fluorophenyl)-N-hydroxyacrylamide]", "values": [{"measurement": "Hsp90 protein level (degradation)", "setting": "Hsp90", "value": "more marked reduction in Hsp90"}, {"measurement": "pEC50", "setting": "22Rv1 cells", "value": 5.38}, {"measurement": "p21 mRNA expression", "setting": "p21 mRNA in C4-2 cells", "value": "induced p21 to a greater extent than SAHA"}, {"measurement": "inhibition of activation of KLK3 by R1881", "setting": "[1]", "value": "better inhibitors of gene activation by androgen compared with either Enz or SAHA"}, {"measurement": "pEC50", "setting": "C4-2 cells; MTT, Day 3, FIG. 6A", "value": 5.48}, {"measurement": "cell death (viable cells below the number on Day 0)", "setting": "C4-2 cells", "value": "caused cell death"}]}, {"smiles": "CNC(=O)c1ccc(N2C(=S)N(c3ccc(C#N)c(C(F)(F)F)c3)C(=O)C2(C)C)cc1F", "note": "[Enz, Enzalutamide, reference compound]", "values": [{"measurement": "Hsp90 protein level (degradation)", "setting": "Hsp90", "value": "had no effect"}, {"measurement": "effect on growth of 22Rv1 cells", "setting": "22Rv1 cells", "value": "not"}, {"measurement": "p21 mRNA expression", "setting": "p21 mRNA in C4-2 cells", "value": "had no effect"}, {"measurement": "inhibition of activation of KLK3 by R1881", "setting": "[1]", "value": "progressive inhibition at higher doses"}, {"measurement": "effect on C4-2 cell growth", "setting": "C4-2 cells; MTT, Day 3, up to 10 μM, FIG. 6A", "value": "could not appreciably affect growth even at a concentration of 10 μM"}]}]}
